Source: PubChem BioAssay (NCI)
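Interpolation was linear, between the two tested concentrations surrounding the appropriate level; five concentrations were tested over 48 hours in 96-well plates. Here, GI50 denotes the concentration required for 50% inhibition of growth. TGI denotes the concentration required for complete inhibition of growth.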

How the values were obtained:
Assay in all cases: inhibition of tumour cell growth, NCI panel, 48 h
[1] = tested on: 786-0 renal
[2] = tested on: A498 renal
[3] = tested on: A549 NSCLC
[4] = tested on: ACHN renal
[5] = tested on: BT-549 breast
[6] = tested on: CAKI-1 renal
[7] = tested on: CCRF-CEM leukemia
[8] = tested on: COLO 205 colon
[9] = tested on: DU-145 prostate
[10] = tested on: EKVX NSCLC
[11] = tested on: HCT-116 colon
[12] = tested on: HCT-15 colon
[13] = tested on: HL-60(TB) leukemia
[14] = tested on: HOP-62 NSCLC
[15] = tested on: HOP-92 NSCLC
[16] = tested on: HS 578T breast
[17] = tested on: HT29 colon
[18] = tested on: IGROV1 ovarian
[19] = tested on: K-562 leukemia
[20] = tested on: KM12 colon
[21] = tested on: LOX IMVI melanoma
[22] = tested on: M14 melanoma
[23] = tested on: MALME-3M melanoma
[24] = tested on: MCF7 breast
[25] = tested on: MDA-MB-231 breast
[26] = tested on: MDA-MB-435
[27] = tested on: MDA-N
[28] = tested on: MOLT-4 leukemia
[29] = tested on: NCI-H23 lung
[30] = tested on: NCI-H460 lung
[31] = tested on: NCI-H522 lung
[32] = tested on: NCI/ADR-RES ovarian
[33] = tested on: OVCAR-3 ovarian
[34] = tested on: OVCAR-4 ovarian
[35] = tested on: OVCAR-5 ovarian
[36] = tested on: OVCAR-8 ovarian
[37] = tested on: PC-3 prostate
[38] = tested on: RPMI-8226 leukemia
[39] = tested on: RXF 393 renal
[40] = tested on: SF-268 CNS
[41] = tested on: SF-295 CNS
[42] = tested on: SF-539 CNS
[43] = tested on: SK-MEL-2 melanoma
[44] = tested on: SK-MEL-28 melanoma
[45] = tested on: SK-MEL-5 melanoma
[46] = tested on: SK-OV-3 ovarian
[47] = tested on: SN12C renal
[48] = tested on: SNB-19 CNS
[49] = tested on: SNB-75 CNS
[50] = tested on: SR leukemia
[51] = tested on: SW-620 colon
[52] = tested on: T-47D breast
[53] = tested on: TK-10 renal
[54] = tested on: U251 CNS
[55] = tested on: UACC-257 melanoma
[56] = tested on: UACC-62 melanoma
[57] = tested on: UO-31 renal

Structure (SMILES): C/C(=N\[N+](C)(C)C)c1ccc(C)c(C)c1
- GI50 [1]: > 100 µM
- TGI [1]: > 100 µM
- TGI [2]: > 100 µM
- TGI [3]: > 100 µM
- GI50 [4]: > 100 µM
- TGI [4]: > 100 µM
- TGI [5]: > 100 µM
- GI50 [6]: > 100 µM
- TGI [6]: > 100 µM
- TGI [7]: > 100 µM
- TGI [8]: 38.3 µM
- TGI [9]: > 100 µM
- TGI [10]: > 100 µM
- TGI [11]: > 100 µM
- GI50 [12]: > 100 µM
- TGI [12]: > 100 µM
- TGI [13]: > 100 µM
- GI50 [14]: > 100 µM
- TGI [14]: > 100 µM
- GI50 [15]: > 100 µM
- TGI [15]: > 100 µM
- GI50 [16]: > 100 µM
- TGI [16]: > 100 µM
- TGI [17]: > 100 µM
- TGI [18]: > 100 µM
- TGI [19]: > 100 µM
- TGI [20]: > 100 µM
- GI50 [21]: > 100 µM
- TGI [21]: > 100 µM
- GI50 [22]: > 100 µM
- TGI [22]: > 100 µM
- GI50 [23]: > 100 µM
- TGI [23]: > 100 µM
- GI50 [24]: > 100 µM
- TGI [24]: > 100 µM
- GI50 [25]: > 100 µM
- TGI [25]: > 100 µM
- TGI [26]: > 100 µM
- TGI [27]: > 100 µM
- GI50 [28]: > 100 µM
- TGI [28]: > 100 µM
- TGI [29]: > 100 µM
- TGI [30]: > 100 µM
- TGI [31]: > 100 µM
- GI50 [32]: > 100 µM
- TGI [32]: > 100 µM
- TGI [33]: > 100 µM
- TGI [34]: > 100 µM
- TGI [35]: > 100 µM
- TGI [36]: > 100 µM
- TGI [37]: > 100 µM
- TGI [38]: > 100 µM
- TGI [39]: > 100 µM
- GI50 [40]: > 100 µM
- TGI [40]: > 100 µM
- TGI [41]: > 100 µM
- GI50 [42]: > 100 µM
- TGI [42]: > 100 µM
- TGI [43]: > 100 µM
- GI50 [44]: > 100 µM
- TGI [44]: > 100 µM
- TGI [45]: > 100 µM
- TGI [46]: > 100 µM
- TGI [47]: 69.7 µM
- TGI [48]: > 100 µM
- TGI [49]: > 100 µM
- TGI [50]: > 100 µM
- TGI [51]: > 100 µM
- TGI [52]: > 100 µM
- TGI [53]: > 100 µM
- TGI [54]: > 100 µM
- TGI [55]: 26.7 µM
- TGI [56]: > 100 µM
- TGI [57]: > 100 µM
